Laboratory results from ChEMBL document CHEMBL4665869, “New thiazolopyrimidine as anticancer agents: Synthesis, biological evaluation, DNA binding, molecular modeling and ADMET study” (Bioorg Med Chem Lett, 2020).
≈ marks a conversion by molar mass, not a printed value.

What was measured:
DNA = assay: Displacement of methyl green from DNA (unknown origin) assessed as DNA intercalation after 24 hrs by colorimetric assay; assay type: nucleic-acid assay
UACC-257 = assay: Growth inhibition of human UACC-257 cells at 10 uM relative to control; assay type: functional; conditions: read-out: GI
A498 = assay: Growth inhibition of human A498 cells at 10 uM relative to control; assay type: functional; conditions: read-out: GI
SF-539 = assay: Growth inhibition of human SF-539 cells at 10 uM relative to control; assay type: functional; conditions: read-out: GI
IGROV-1 = assay: Growth inhibition of human IGROV-1 cells at 10 uM relative to control; assay type: functional; conditions: read-out: GI
OVCAR-4 = assay: Growth inhibition of human OVCAR-4 cells at 10 uM relative to control; assay type: functional; conditions: read-out: GI
RPMI-8226 = assay: Growth inhibition of human RPMI-8226 cells at 10 uM relative to control; assay type: functional; conditions: read-out: GI
DU-145 = assay: Growth inhibition of human DU-145 cells at 10 uM relative to control; assay type: functional; conditions: read-out: GI
SK-MEL-5 = assay: Growth inhibition of human SK-MEL-5 cells at 10 uM relative to control; assay type: functional; conditions: read-out: GI
MOLT-4 = assay: Growth inhibition of human MOLT-4 cells at 10 uM relative to control; assay type: functional; conditions: read-out: GI
A549 = assay: Growth inhibition of human A549 cells at 10 uM relative to control; assay type: functional; conditions: read-out: GI
Hs-578T = assay: Growth inhibition of human Hs-578T cells at 10 uM relative to control; assay type: functional; conditions: read-out: GI
ACHN = assay: Growth inhibition of human ACHN cells at 10 uM relative to control; assay type: functional; conditions: read-out: GI
UACC-62 = assay: Growth inhibition of human UACC-62 cells at 10 uM relative to control; assay type: functional; conditions: read-out: GI
KM12 = assay: Growth inhibition of human KM12 cells at 10 uM relative to control; assay type: functional; conditions: read-out: GI
SF-295 = assay: Growth inhibition of human SF-295 cells at 10 uM relative to control; assay type: functional; conditions: read-out: GI
MDA-MB-435 = assay: Growth inhibition of human MDA-MB-435 cells at 10 uM relative to control; assay type: functional; conditions: read-out: GI
SNB-75 = assay: Growth inhibition of human SNB-75 cells at 10 uM relative to control; assay type: functional; conditions: read-out: GI
T47D = assay: Growth inhibition of human T47D cells at 10 uM relative to control; assay type: functional; conditions: read-out: GI
OVCAR-5 = assay: Growth inhibition of human OVCAR-5 cells at 10 uM relative to control; assay type: functional; conditions: read-out: GI
MDA-MB-231 = assay: Growth inhibition of human MDA-MB-231 cells at 10 uM relative to control; assay type: functional; conditions: read-out: GI
CCRF-CEM = assay: Growth inhibition of human CCRF-CEM cells at 10 uM relative to control; assay type: functional; conditions: read-out: GI
NCI-H322M = assay: Growth inhibition of human NCI-H322M cells at 10 uM relative to control; assay type: functional; conditions: read-out: GI
SK-MEL-2 = assay: Growth inhibition of human SK-MEL-2 cells at 10 uM relative to control; assay type: functional; conditions: read-out: GI
CAKI-1 = assay: Growth inhibition of human CAKI-1 cells at 10 uM relative to control; assay type: functional; conditions: read-out: GI
BT-549 = assay: Growth inhibition of human BT-549 cells at 10 uM relative to control; assay type: functional; conditions: read-out: GI
TK-10 = assay: Growth inhibition of human TK-10 cells at 10 uM relative to control; assay type: functional; conditions: read-out: GI
MDA-MB-468 = assay: Growth inhibition of human MDA-MB-468 cells at 10 uM relative to control; assay type: functional; conditions: read-out: GI
HL-60(TB) = assay: Growth inhibition of human HL-60(TB) cells at 10 uM relative to control; assay type: functional; conditions: read-out: GI
786-0 = assay: Growth inhibition of human 786-0 cells at 10 uM relative to control; assay type: functional; conditions: read-out: GI
SK-MEL-28 = assay: Growth inhibition of human SK-MEL-28 cells at 10 uM relative to control; assay type: functional; conditions: read-out: GI
SK-OV-3 = assay: Growth inhibition of human SK-OV-3 cells at 10 uM relative to control; assay type: functional; conditions: read-out: GI
RXF 393 = assay: Growth inhibition of human RXF 393 cells at 10 uM relative to control; assay type: functional; conditions: read-out: GI
NCI-H522 = assay: Growth inhibition of human NCI-H522 cells at 10 uM relative to control; assay type: functional; conditions: read-out: GI
HCT-116 = assay: Growth inhibition of human HCT-116 cells at 10 uM relative to control; assay type: functional; conditions: read-out: GI
OVCAR-8 = assay: Growth inhibition of human OVCAR-8 cells at 10 uM relative to control; assay type: functional; conditions: read-out: GI
NCI-H23 = assay: Growth inhibition of human NCI-H23 cells at 10 uM relative to control; assay type: functional; conditions: read-out: GI
NCI-H226 = assay: Growth inhibition of human NCI-H226 cells at 10 uM relative to control; assay type: functional; conditions: read-out: GI
MCF7 = assay: Growth inhibition of human MCF7 cells at 10 uM relative to control; assay type: functional; conditions: read-out: GI
HOP-62 = assay: Growth inhibition of human HOP-62 cells at 10 uM relative to control; assay type: functional; conditions: read-out: GI
NCI-H460 = assay: Growth inhibition of human NCI-H460 cells at 10 uM relative to control; assay type: functional; conditions: read-out: GI
HT-29 = assay: Growth inhibition of human HT-29 cells at 10 uM relative to control; assay type: functional; conditions: read-out: GI
M14 = assay: Growth inhibition of human M14 cells at 10 uM relative to control; assay type: functional; conditions: read-out: GI
K562 = assay: Growth inhibition of human K562 cells at 10 uM relative to control; assay type: functional; conditions: read-out: GI
SN12C = assay: Growth inhibition of human SN12C cells at 10 uM relative to control; assay type: functional; conditions: read-out: GI
HOP-92 = assay: Growth inhibition of human HOP-92 cells at 10 uM relative to control; assay type: functional; conditions: read-out: GI
HCC 2998 = assay: Growth inhibition of human HCC 2998 cells at 10 uM relative to control; assay type: functional; conditions: read-out: GI
SR = assay: Growth inhibition of human SR cells at 10 uM relative to control; assay type: functional; conditions: read-out: GI
COLO 205 = assay: Growth inhibition of human COLO 205 cells at 10 uM relative to control; assay type: functional; conditions: read-out: GI
UO-31 = assay: Growth inhibition of human UO-31 cells at 10 uM relative to control; assay type: functional; conditions: read-out: GI
Malme-3M = assay: Growth inhibition of human Malme-3M cells at 10 uM relative to control; assay type: functional; conditions: read-out: GI
LOX IMVI = assay: Growth inhibition of human LOX IMVI cells at 10 uM relative to control; assay type: functional; conditions: read-out: GI
SW-620 = assay: Growth inhibition of human SW-620 cells at 10 uM relative to control; assay type: functional; conditions: read-out: GI
NCI/ADR-RES = assay: Growth inhibition of human NCI/ADR-RES cells at 10 uM relative to control; assay type: functional; conditions: read-out: GI
HCT-15 = assay: Growth inhibition of human HCT-15 cells at 10 uM relative to control; assay type: functional; conditions: read-out: GI
U-251 = assay: Growth inhibition of human U-251 cells at 10 uM relative to control; assay type: functional; conditions: read-out: GI
SNB-19 = assay: Growth inhibition of human SNB-19 cells at 10 uM relative to control; assay type: functional; conditions: read-out: GI
SF-268 = assay: Growth inhibition of human SF-268 cells at 10 uM relative to control; assay type: functional; conditions: read-out: GI

SMILES: CCOC(=O)C1=CSC2=NC(/C=C/c3ccc(C)cc3)=CC(c3ccc(C)cc3)N12 (stereo not drawn)
- IC50 (DNA): 31.49 µg/mL (≈ 75.6 µM)

SMILES: COc1ccc(/C=C/C2=CC(c3ccc(OC)c(OC)c3)N3C=CSC3=N2)cc1OC (stereo not drawn)
- inhibition of growth at 10 µM (UACC-257): 12.8%
- inhibition of growth at 10 µM (A498): 25.6%
- inhibition of growth at 10 µM (SF-539): < 10%
- inhibition of growth at 10 µM (IGROV-1): < 10%
- inhibition of growth at 10 µM (OVCAR-4): < 10%
- inhibition of growth at 10 µM (RPMI-8226): < 10%
- inhibition of growth at 10 µM (DU-145): < 10%
- inhibition of growth at 10 µM (SK-MEL-5): < 10%
- inhibition of growth at 10 µM (MOLT-4): < 10%
- inhibition of growth at 10 µM (A549): < 10%
- inhibition of growth at 10 µM (Hs-578T): < 10%
- inhibition of growth at 10 µM (ACHN): < 10%
- inhibition of growth at 10 µM (UACC-62): < 10%
- inhibition of growth at 10 µM (KM12): < 10%
- inhibition of growth at 10 µM (SF-295): < 10%
- inhibition of growth at 10 µM (MDA-MB-435): < 10%
- inhibition of growth at 10 µM (SNB-75): < 10%
- inhibition of growth at 10 µM (T47D): < 10%
- inhibition of growth at 10 µM (OVCAR-5): < 10%
- inhibition of growth at 10 µM (MDA-MB-231): < 10%
- inhibition of growth at 10 µM (CCRF-CEM): < 10%
- inhibition of growth at 10 µM (NCI-H322M): < 10%
- inhibition of growth at 10 µM (SK-MEL-2): < 10%
- inhibition of growth at 10 µM (CAKI-1): < 10%
- inhibition of growth at 10 µM (BT-549): < 10%
- inhibition of growth at 10 µM (TK-10): < 10%
- inhibition of growth at 10 µM (MDA-MB-468): < 10%
- inhibition of growth at 10 µM (HL-60(TB)): < 10%
- inhibition of growth at 10 µM (786-0): < 10%
- inhibition of growth at 10 µM (SK-MEL-28): < 10%
- inhibition of growth at 10 µM (SK-OV-3): < 10%
- inhibition of growth at 10 µM (RXF 393): < 10%
- inhibition of growth at 10 µM (NCI-H522): < 10%
- inhibition of growth at 10 µM (HCT-116): < 10%
- inhibition of growth at 10 µM (OVCAR-8): < 10%
- inhibition of growth at 10 µM (NCI-H23): < 10%
- inhibition of growth at 10 µM (NCI-H226): < 10%
- inhibition of growth at 10 µM (MCF7): < 10%
- inhibition of growth at 10 µM (HOP-62): < 10%
- inhibition of growth at 10 µM (NCI-H460): < 10%
- inhibition of growth at 10 µM (HT-29): < 10%
- inhibition of growth at 10 µM (M14): < 10%
- inhibition of growth at 10 µM (K562): < 10%
- inhibition of growth at 10 µM (SN12C): < 10%
- inhibition of growth at 10 µM (HOP-92): < 10%
- inhibition of growth at 10 µM (HCC 2998): < 10%
- IC50 (DNA): 30.05 µg/mL (≈ 68.8 µM)
- inhibition of growth at 10 µM (SR): 13.8%
- inhibition of growth at 10 µM (COLO 205): < 10%
- inhibition of growth at 10 µM (UO-31): 11.3%
- inhibition of growth at 10 µM (Malme-3M): < 10%
- inhibition of growth at 10 µM (LOX IMVI): < 10%
- inhibition of growth at 10 µM (SW-620): < 10%
- inhibition of growth at 10 µM (NCI/ADR-RES): < 10%
- inhibition of growth at 10 µM (HCT-15): < 10%
- inhibition of growth at 10 µM (U-251): < 10%
- inhibition of growth at 10 µM (SNB-19): < 10%
- inhibition of growth at 10 µM (SF-268): < 10%

SMILES: CCOC(=O)C1=CSC2=NC(/C=C/c3cccs3)=CC(c3cccs3)N12 (stereo not drawn)
- IC50 (DNA): 66.01 µg/mL (≈ 165 µM)

SMILES: CC1=CN2C(=NC(/C=C/c3cccs3)=CC2c2cccs2)S1 (stereo not drawn)
- IC50 (DNA): 76.15 µg/mL (≈ 222 µM)

SMILES: COc1ccc(/C=C/C2=CC(c3ccc(OC)cc3)N3C=C(C)SC3=N2)cc1 (stereo not drawn)
- IC50 (DNA): 41.37 µg/mL (≈ 106 µM)

SMILES: COc1ccc(/C=C/C2=CC(c3ccc(OC)c(OC)c3)N3C=C(C)SC3=N2)cc1OC (stereo not drawn)
- IC50 (DNA): 58.32 µg/mL (≈ 129 µM)
